Data as given in PubChem BioAssay (NCI).
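Dose response: 5 concentrations. Exposure: 48 h. Format: 96-well plates. Endpoint: linear interpolation; highest concentration if not reached. GI50 marks 50% less growth. At the TGI there is no net growth.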

Columns and labels:
Assay in all cases: inhibition of tumour cell growth, NCI panel, 48 h
TK-10 renal = tested on: TK-10 renal
U251 CNS = tested on: U251 CNS
PC-3 prostate = tested on: PC-3 prostate
HOP-62 NSCLC = tested on: HOP-62 NSCLC
A549 NSCLC = tested on: A549 NSCLC
HOP-92 NSCLC = tested on: HOP-92 NSCLC
SW-620 colon = tested on: SW-620 colon
HL-60(TB) leukemia = tested on: HL-60(TB) leukemia
ACHN renal = tested on: ACHN renal
A498 renal = tested on: A498 renal

Structure (SMILES) | TGI (TK-10 renal) [µM] | TGI (U251 CNS) [µM] | TGI (PC-3 prostate) [µM] | TGI (HOP-62 NSCLC) [µM] | TGI (A549 NSCLC) [µM] | TGI (HOP-92 NSCLC) [µM] | TGI (SW-620 colon) [µM] | TGI (HL-60(TB) leukemia) [µM] | TGI (ACHN renal) [µM] | TGI (A498 renal) [µM] | GI50 (TK-10 renal) [µM] | GI50 (U251 CNS) [µM] | GI50 (A498 renal) [µM] | GI50 (HOP-62 NSCLC) [µM] | GI50 (A549 NSCLC) [µM] | GI50 (HOP-92 NSCLC) [µM] | GI50 (SW-620 colon) [µM] | GI50 (ACHN renal) [µM]
O=C1NC(Nc2ccccc2)=NC(C(F)(F)F)(C(F)(F)F)N1 | > 100 | 87.9 | > 100 | > 100 | > 100 | 53.4 | > 100 | > 100 | > 100 | – | – | – | – | – | – | – | – | –
COc1ccc2c3c1OC1C(=O)C=CC4(CC2)N(C)CCC314 (stereo not given) | > 100 | 53 | > 100 | > 100 | 84.1 | > 100 | > 100 | – | 73.9 | 58.7 | – | – | – | – | – | – | – | –
Nc1ccc(S(=O)(=O)c2ccc(NCN3C(=O)NC(=O)C(=O)C3=O)cc2)cc1 | > 100 | > 100 | > 100 | > 100 | > 100 | > 100 | > 100 | – | > 100 | > 100 | – | – | – | – | – | – | – | –
COc1cc2ccc(=O)oc2cc1O | – | 455 | – | 411 | 320 | > 522 | > 625 | 271 | – | 208 | – | – | – | – | – | – | – | –
CN(C)C(=O)OC1C(=O)N(C)c2ccc(Cl)cc2C2(c3ccccc3)N1C2(Cl)Cl (stereo not given) | > 100 | > 100 | – | > 100 | – | > 100 | > 100 | > 100 | > 100 | – | – | – | – | – | – | – | – | –
C[N+](C)(C)c1ccc(C(N)C(=O)O)cc1 (stereo not given) | > 100 | > 100 | > 100 | > 100 | – | > 100 | > 100 | > 100 | > 100 | > 100 | – | – | – | – | – | – | – | –
COc1ccc(N2C(=O)CC(=O)N(C(=O)COc3ccc(OCC(=O)N4C(=O)CC(=O)N(c5ccc(OC)cc5)C4=S)cc3)C2=S)cc1 | > 100 | > 100 | > 100 | – | > 100 | > 100 | > 100 | – | > 100 | > 100 | – | – | – | – | – | – | – | –
COC(=O)C1(Cc2ccc3c(c2)CCC3)Cc2ccccc2C1O (stereo not given) | 53.1 | 31.1 | 29.2 | 46.3 | 49.2 | – | 43.5 | > 100 | 38.3 | 33.7 | – | – | – | – | – | – | – | –
O=C1CCCCC/C1=C\c1ccc([N+](=O)[O-])cc1 | 74.4 | > 100 | > 100 | > 100 | > 100 | – | > 100 | 94.4 | 55 | > 100 | – | – | – | – | – | – | – | –
Cc1cc(C)nc(SC2=C(Nc3ccc(C)c(Cl)c3)C(=O)N(Cc3ccccc3)C2=O)n1 | > 160 | > 160 | – | > 160 | > 160 | > 160 | > 160 | – | > 160 | > 160 | > 160 | > 160 | > 160 | 1.35 | > 160 | > 160 | > 160 | > 160
CC(=C(c1ccccc1)c1ccccc1)N1C(=O)CC(=O)N1C | > 100 | > 100 | > 100 | > 100 | > 100 | > 100 | > 100 | – | > 100 | – | – | – | – | – | – | – | – | –
COc1c(O)c(C=O)c2c(O)c(-c3c(C)cc4c(C(C)C)c(OC)c(O)c(C=O)c4c3O)c(C)cc2c1C(C)C | 19.3 | 12.2 | – | 9.18 | 11.6 | 8.31 | 17.7 | 41.4 | 8.05 | 24.7 | – | – | – | – | – | – | – | –
O=c1cc(N2CCCC2)[nH]c(=O)n1Cc1ccccc1 | > 100 | > 100 | > 100 | > 100 | > 100 | > 100 | > 100 | > 100 | > 100 | – | – | – | – | – | – | – | – | –
C/C=C/c1cc(=O)c([C@@H]2OC(=O)c3cc(OC)cc(OC)c32)co1 | > 100 | – | – | > 100 | > 100 | > 100 | > 100 | > 100 | > 100 | – | – | – | – | – | – | – | – | –
NC(=O)c1cccc([N+](=O)[O-])c1 | > 100 | > 100 | – | > 100 | > 100 | – | > 100 | > 100 | – | > 100 | – | – | – | – | – | – | – | –
CC(=O)Oc1cc2c(cc1OC(C)=O)OCC(c1ccc(C)cc1)C2 (stereo not given) | – | 38.8 | – | 44.4 | 64.6 | 29 | 47.3 | 6.56 | – | 15.3 | – | – | – | – | – | – | – | –
C=C[C@@H](C)[C@H](NS(=O)(=O)c1ccc(C)cc1)C(=O)OCC | > 100 | 97.3 | > 100 | > 100 | > 100 | – | > 100 | > 100 | > 100 | > 100 | – | – | – | – | – | – | – | –
Cc1ccc(/C(O)=C/c2nc3ccccc3sc2=O)c(C)c1 | > 100 | > 100 | > 100 | 97.3 | > 100 | 82.4 | – | 69.6 | > 100 | > 100 | – | – | – | – | – | – | – | –
COC(=O)C1CCC(=S)N1C(=O)c1ccccc1 (stereo not given) | > 100 | > 100 | > 100 | > 100 | > 100 | > 100 | – | – | > 100 | > 100 | – | – | – | – | – | – | – | –
CC(C)=NN/C(=N\S(=O)(=O)c1ccc(Oc2cccc(Cl)c2C#N)cc1)Nc1ccc(Cl)cc1 | > 100 | > 100 | > 100 | > 100 | > 100 | > 100 | > 100 | > 100 | – | – | – | – | – | – | – | – | – | –
COC(OC)[C@@H]1OC[C@H](n2cnc3c(N)ncnc32)[C@H]1O | > 100 | > 100 | > 100 | > 100 | > 100 | > 100 | > 100 | – | > 100 | > 100 | – | – | – | – | – | – | – | –
CO/N=C1\CC(NC(=O)CNC(=O)OC(C)(C)C)c2ccsc21 (stereo not given) | > 100 | > 100 | > 100 | > 100 | > 100 | > 100 | > 100 | > 100 | – | > 100 | – | – | – | – | – | – | – | –
CC1(C)N/C(=C\C=O)C(C)(C)N1O | > 100 | > 100 | > 100 | > 100 | > 100 | > 100 | > 100 | > 100 | > 100 | – | – | – | – | – | – | – | – | –
